Laboratory results reported in patent US7759346B2, “[[2-(amino-3,4-dioxo-1-cyclobuten-1-yl)amino]alkyl]-acid derivatives for the treatment of pain” (priority 2001, dated 2010).
Read-outs that look alike come from different tables or passages of the source.

How the values were obtained:
[1] = PCP-like effects relative to doses effective in an ischemia model; settings: in vivo
Spraque-Dawley rats [2] = assay: Prostaglandin E2-induced thermal hypersensitivity, warm-water tail withdrawal, single compound studies; format: in vivo, rat; settings: given 30 min before PGE2
Method: Ketamine and dizocilpine are high affinity use-dependent NMDA receptor channel blockers, while memantine is a moderate affinity use-dependent NMDA receptor channel blocker. CGS-19755 is a competitive NMDA antagonist and ifenprodil is a […] polyamine antagonist. Test Method 1: Prostaglandin E2-Induced Thermal Hypersensitivity.
(§1) The terminal 10 cm of the tail was placed into a thermos bottle containing water warmed to 38, 42, 46, 50, 54, or 58° C. The latency in seconds for the animal to remove the tail from the water was used as a measure of nociception.
(§2) Following the assessment of baseline thermal sensitivity, thermal hypersensitivity was produced by a 50 μL injection of 0.1 mg prostaglandin E2 (PGE2) into the terminal 1 cm of the tail. Temperature-effect curves were generated before (baseline) and after (15, 30, 60, 90 and 120 min) the PGE2 injection.
Single compound studies. The ability of drugs to reverse PGE2-induced thermal hypersensitivity was assessed using a single dose time-course procedure. Under this procedure, a single dose of the compound to be tested was administered intraperitoneally (IP), orally (PO) or intranasally (IN) 30 min before the injection of PGE2. […] sensitivity was assessed 30 min after PGE2 injection.
(§3) Test Method 1 Data Analysis—The temperature that produced a half-maximal increase in the tail-withdrawal latency (i.e., T10) was calculated from each temperature-effect curve. The T10 was determined by interpolation from a line drawn between the point above and the point below 10 sec on the temperature-effect curve. For these studies, thermal hypersensitivity was defined as a leftward shift in the temperature-effect curve and a decrease in the T10 value. Reversal of thermal hypersensitivity was defined as a return to baseline of the temperature-effect curve and the T10 value and was calculated according to the following equation:
[formula] in which T10^drug+PGE2 is the T10 after a drug in combination with PGE2, T10^PGE2 is the T10 after PGE2 alone, and T10^baseline is the T10 under control conditions. A % MPE value of 100 indicates a complete return to the baseline thermal sensitivity observed without the PGE2 injection. […] Test Method 2: Chronic Constriction Injury

Spraque-Dawley rats [3] = assay: Chronic Constriction Injury-induced tactile hypersensitivity (von Frey); format: in vivo, rat; settings: IP, one week after CCl surgery
From the text: Rats were anesthetized with 3.5% halothane in O2 at 1 L/min and maintained with 1.5% halothane in O2 during surgery. A modified chronic sciatic nerve constriction injury (Mosconi & Kruger, 1996; Bennett & Xie, 1988) was produced by a cutaneous incision and a blunt dissection through the biceps femoris to expose the sciatic nerve. A PE 90 Polyethylene tubing (Intramedic, Clay Adams; Becton Dickinson Co.) cuff (2 mm length) was placed around the sciatic nerve at the level of the mid-thigh. The wound was closed in layers using 4-0 silk suture and wound clips. Testing was conducted 6-10 days after surgery.
Animals were placed in elevated wire cages and allowed 45-60 minutes to acclimate to the testing room. Baseline tactile sensitivity was assessed using a series of calibrated von Frey monofilaments (Stoelting; Wood Dale, Ill.) 0-3 days before surgery. Von Frey monofilaments were applied to the mid-plantar hind paw in sequential ascending or descending order, as necessary, to hover as closely as possible to the threshold of responses. The threshold was indicated by the lowest force that evoked a brisk withdrawal response to the stimuli. Thus, a withdrawal response led to the presentation of the next lighter stimulus and the lack of a withdrawal response led to the presentation of the next stronger stimulus. Rats with baseline thresholds <10 g force were excluded from the study. […] Under cumulative dosing conditions, compounds were administered IP every 30 minutes with the cumulative dose increasing in ½ log unit increments. Tactile hypersensitivity was assessed 20-30 minutes following each drug administration.
Test Method 2 Data Analysis—The 50% threshold values (in gm force) estimated by the Dixon non-parametric test (Chaplan et al, 1994) was calculated and fifteen-grams of force was used as the maximal force. Dose-effect curves were generated for each experimental condition for each rat. Individual tactile hypersensitivity threshold values were averaged to provide a mean (±1 SEM). Reversal of tactile hypersensitivity was defined as a return to baseline tactile sensitivity and was calculated according to the following equation:
(§4) [formula] in which 50%^drug+CCl is the 50% value after compound in animals approximately one week after CCl surgery, 50%^CCl is the 50% value approximately one week after CCl surgery alone, and 50%^baseline is the 50% value before CCl surgery. Maximal effect of 100% reversal represents a return to the mean pre-operative threshold value for subjects in that experimental condition. Test Method 3: Scheduled-Controlled Responding.

Spraque-Dawley rats [4] = format: in vivo, rat
Method: as §1, §2
Compounds were administered IP at the same time as PGE2, which was administered 30 min before testing.
as §3, with “equation: […]” for “equation:”

[5] = system: cingulate and retrosplenial cortices of mice and rats; assay: Induction of vacuoles (vacuolization) versus behaviorally effective doses; settings: in vivo
Spraque-Dawley rats [6] = assay: Scheduled-controlled responding (operant responding, food presentation)
From the text: as §4
Rats were trained under a multiple-cycle procedure during experimental sessions conducted five days each week. Each training cycle consisted of a 1-min pretreatment period followed by a 10-min response period. During the pretreatment period, stimulus lights were not illuminated, and responding had no scheduled consequences. During the response period, the left or right stimulus lights were illuminated (counterbalanced among subjects), the response lever was extended and subjects could respond under a fixed ratio 30 schedule of food presentation. Training sessions consisted of 3 consecutive cycles. Testing sessions were identical to training sessions except that a single dose of drug was administered at the start of the first cycle.
Data analysis. Operant response rates from individual animals were averaged for the three cycles during test sessions and were converted to percent of control response rates using the average rate from the previous training day as the control value (i.e., average of three cycles). Data are presented as the mean (±1 SEM) response rate as a percent of control.

Spraque-Dawley rats [7] = assay: Observable signs of sedation and ataxia
[8] = system: rats trained to discriminate between saline and PCP; assay: PCP-like discriminative stimulus effects (substitution for PCP); format: in vivo
Spraque-Dawley rats [9] = assay: Warm-water tail withdrawal combination studies with morphine; format: in vivo, rat; settings: 10.0 mg/kg IP, 30 min before testing
Method: as §1
Combination compound studies. […] Compounds were administered IP at the same time 30 min before testing.
as §3, with “equation: […]” for “equation:”

With `O=c1c2c(c1=O)N(CCP(=O)(O)O)CCCN2` [Compound A, [2-(8,9-Dioxo-2,6-diazabicyclo[5.2.0]non-1(7)-en-2-yl)ethyl]phosphonic acid] the “devoid of many PCP-like effects up to doses times higher than those effective in an ischemia model” value [1] was 4-10, the “% MPE (reversal of PGE2-induced thermal hypersensitivity)” value (shortened to “% MPE”) (Spraque-Dawley rats [2]; IP, 1 mg/kg) was −7% and the “% MPE” value (Spraque-Dawley rats [2]; IP, 3 mg/kg) was 66%. The “% MPE” value (Spraque-Dawley rats [2]; IP, 10 mg/kg, 10 mg/kg) was 79%, the “% MPE” value (Spraque-Dawley rats [2]; PO, 10 mg/kg) was 5% and the “% MPE” value (Spraque-Dawley rats [2]; PO, 30 mg/kg) was 23%. For the same compound, the “% MPE” value (Spraque-Dawley rats [2]; PO, 100 mg/kg, 100 mg/kg) was 87%, the “% Reversal of CCl-induced tactile hypersensitivity” value (“% Reversal” below) (Spraque-Dawley rats [3]; cumulative dose 1 mg/kg) was 13% and the “% Reversal” value (Spraque-Dawley rats [3]; cumulative dose 3 mg/kg) was 45%. For the same compound, the “% Reversal” value (Spraque-Dawley rats [3]; cumulative dose 10 mg/kg, 10 mg/kg) was 97%, the “Change from Baseline (T10)” value (Spraque-Dawley rats [4]; 10.0 mg/kg IP with PGE2, PGE2 + vehicle −5.6) was −1.5 and the “T10 (temperature producing half-maximal tail-withdrawal latency)” value (Spraque-Dawley rats [4]; 10 mg/kg IP with PGE2, PGE2 alone 44.8±0.1, vehicle 50.3±0.4) was 48.8±0.2. The effectiveness/vacuolization ratio [5] was at most 16, the “Operant responding: response rate as a percent of control” value (Spraque-Dawley rats [6]; IP, 3 mg/kg) was 111% and the “Operant responding: response rate as a percent of control” value (Spraque-Dawley rats [6]; IP, 10 mg/kg) was 86%. For the same compound, the “Operant responding: response rate as a percent of control” value (Spraque-Dawley rats [6]; PO, 10 mg/kg) was 112%, the “Operant responding: response rate as a percent of control” value (Spraque-Dawley rats [6]; PO, 30 mg/kg) was 97% and the “Operant responding: response rate as a percent of control” value (Spraque-Dawley rats [6]; PO, 100 mg/kg) was 100%. The “rates of responding (in words)” value (Spraque-Dawley rats [6]; schedule of food presentation, Compound A IP or PO at doses that reversed hypersensitivity) was “did not significantly modify rates of responding”, the ataxia or sedation (Spraque-Dawley rats [7]; at doses needed to relieve pain in preclinical models) was “did not produce ataxia or sedation” and the sedation or ataxia (Spraque-Dawley rats [7]; doses effective in PGE2 test (as high as 178 mg/kg)) was “not associated with sedation or ataxia”. For the same compound, the sedation or ataxia (Spraque-Dawley rats [7]; doses used in the CCl-induced tactile hypersensitivity study, IP) was “not associated with sedation or ataxia”, the “substitution for PCP” value [8] was “did not substitute for PCP” and the “Change from Baseline (T10)” value (Spraque-Dawley rats [9]) was −0.3.
